Tests used:
human GLP-1R = human GLP-1R (Homo sapiens, UniProt P43220); assay: In vitro GLP-1 receptor potency, cAMP signaling; format: cell-based; settings: In vitro receptor activity cAMP assay (EC50), CRE-Luc reporter, BHK cells expressing human GLP-1R; mean ± SD, three independent experiments
[1] = Murine plasma pharmacokinetic; format: in vivo, male ICR mice
DPP-4 = DPP-4 (Homo sapiens, UniProt P27487); assay: In vitro protease stability: DPP-4 half-life assay; format: in vitro ADME; settings: recombinant DPP-4 enzyme, pH 7.4
[2] = male, ICR, mouse, plasma, iv, 1 mg kg-1

DPP-4, sequence (P27487 whole entry): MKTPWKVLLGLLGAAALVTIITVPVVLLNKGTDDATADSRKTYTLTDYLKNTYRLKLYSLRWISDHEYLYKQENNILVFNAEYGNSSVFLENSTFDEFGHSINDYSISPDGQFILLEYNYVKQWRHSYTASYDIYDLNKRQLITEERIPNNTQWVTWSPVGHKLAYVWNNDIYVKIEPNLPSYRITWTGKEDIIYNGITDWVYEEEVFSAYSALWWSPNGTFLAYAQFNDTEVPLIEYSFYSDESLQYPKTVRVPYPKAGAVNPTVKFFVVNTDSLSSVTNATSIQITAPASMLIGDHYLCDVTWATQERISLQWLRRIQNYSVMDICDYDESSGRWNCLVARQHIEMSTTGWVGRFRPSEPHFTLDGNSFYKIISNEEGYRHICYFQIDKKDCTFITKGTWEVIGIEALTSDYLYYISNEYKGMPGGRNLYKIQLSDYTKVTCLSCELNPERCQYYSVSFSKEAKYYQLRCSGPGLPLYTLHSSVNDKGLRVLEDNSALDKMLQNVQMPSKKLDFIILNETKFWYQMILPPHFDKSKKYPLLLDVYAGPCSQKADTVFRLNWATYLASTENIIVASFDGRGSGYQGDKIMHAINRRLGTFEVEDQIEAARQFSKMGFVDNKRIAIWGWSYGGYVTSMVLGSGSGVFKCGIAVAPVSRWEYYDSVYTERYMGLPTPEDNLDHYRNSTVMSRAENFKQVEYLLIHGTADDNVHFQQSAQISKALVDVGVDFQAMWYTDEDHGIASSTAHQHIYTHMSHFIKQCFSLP
human GLP-1R, sequence (P43220 24-463): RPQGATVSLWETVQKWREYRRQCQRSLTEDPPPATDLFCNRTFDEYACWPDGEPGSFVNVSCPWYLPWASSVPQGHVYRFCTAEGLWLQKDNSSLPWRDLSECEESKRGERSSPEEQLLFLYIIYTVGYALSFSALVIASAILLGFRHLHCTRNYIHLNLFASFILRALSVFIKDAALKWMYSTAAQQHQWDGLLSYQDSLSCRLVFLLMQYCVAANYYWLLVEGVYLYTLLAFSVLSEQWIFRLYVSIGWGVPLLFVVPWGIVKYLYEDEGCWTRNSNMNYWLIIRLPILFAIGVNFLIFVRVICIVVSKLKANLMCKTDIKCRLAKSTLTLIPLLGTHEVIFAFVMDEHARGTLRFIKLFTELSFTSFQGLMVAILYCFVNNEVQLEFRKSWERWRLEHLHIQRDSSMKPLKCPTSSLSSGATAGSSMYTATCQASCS

CC[C@H](C)[C@H](NC(=O)[C@H](Cc1ccccc1)NC(=O)[C@H](CCC(=O)O)NC(=O)[C@H](CCCCN)NC(=O)[C@H](C)NC(=O)[C@H](C)NC(=O)[C@H](CCC(N)=O)NC(=O)CNC(=O)[C@H](CCC(=O)O)NC(=O)[C@H](CC(C)C)NC(=O)[C@H](Cc1ccc(O)cc1)NC(=O)[C@H](CO)NC(=O)[C@H](CO)NC(=O)[C@@H](NC(=O)[C@H](CC(=O)O)NC(=O)[C@H](CO)NC(=O)[C@@H](NC(=O)[C@H](Cc1ccccc1)NC(=O)[C@@H](NC(=O)CNC(=O)[C@H](CCC(=O)O)NC(=O)[C@H](C)NC(=O)N(N)Cc1c[nH]cn1)[C@@H](C)O)[C@@H](C)O)C(C)C)C(=O)N[C@@H](C)C(=O)N[C@@H](Cc1c[nH]c2ccccc12)C(=O)N[C@@H](CC(C)C)C(=O)N[C@H](C(=O)N[C@@H](CCCNC(=N)N)C(=O)NCC(=O)N[C@@H](CCCNC(=N)N)C(=O)NCC(=O)O)C(C)C [AzaH7, [azaHis^7/R^34]-GLP-1(7–37)]
EC50 (human GLP-1R): 0.743 ± 0.164 nM | clearance [1, 2]: ~7 mL/min/kg | half-life [1, 2]: 1.67 ± 0.52 h | plasma half-life ([1]; mice, single IV 1 mg kg^−1, plasma, hours converted to minutes): ~1.67 h | half-life at 0.1 mmol/l (DPP-4): > 24 h
